Data from patent publication US20240309049A1, “SYNTHETIC DNA BINDING DOMAIN PEPTIDES AND USES THEREOF” (The University of Chicago, priority 2016, published 2024).
Positions of bridges follow the written chain, without caps; N, C: chain ends. Non-standard residues stand in square brackets, D forms with d. No end group written: not given here. S5 = C=CCCC[C@](C)(N)C(=O)O; βAla = NCCC(=O)O

Test system: E-box DNA (5′-CACGTG-3′)
Assay: Electrophoretic mobility shift assay (EMSA, gel shift) with fluorophore-labeled E-box oligonucleotide
Format: binding
Conditions: for E-box DNA binding in gel shift (in words): E-box probe
Experimental: FIG. 9 Representative electrophoretic mobility shift assay (EMSA, referred to as “Gel Shift) images of full length Myc/Max protein binding a fluorophore-labeled oligonucleotide containing an E-box binding site. Full-length Myc/Max binds in this assay with an affinity of ˜10 nM.
A fluorophore-labeled (5′-FAM) oligonucleotide containing a central E-box sequence was used (at 10 nM) to assess Myc/Max and DMD binding. This sequence was used in the Myc/Max/E-box crystal structure. […] The lower band is free E-box probe whereas the higher band is Myc/Max-bound E-box probe. Addition of excess non-labeled E-box probe (E1) competes this interaction. […] Thus, gel shift assays with the E-box probe are suitable for determining DMD (RTD) DNA-binding.
Representative gel shifts are shown for the Myc/Max heterodimer and members of the RTD2x, RTD8x and RTD7x series. Plotted are binding curves derived from the intensity of the free E-box probe (inhibition) and stable shifted band (binding).

Row | E-box DNA binding in gel shift (in words) | EC50 (E-box probe at 10 nM, read-out: EC50 for stable E-box binding / stable complex formation) | E-box DNA binding in gel shift (in words) (listed as MBS) | Kd (E-box oligonucleotide, read-out: binding affinity (Kd) for E-box DNA) | Substance
1 | both tight and stable binding | 50 to 100 nM | more stable DNA complex formation |  | 913-MBS: RTD913 design with rigid meta-xylyl linker MBS (Ac-W[βAla]KRAHHNALER[2‑amino‑2‑methylhept‑6‑enoic acid]RRD[S5]IKDSK; staple 13-17; also: dimer via MBS (meta-xylyl) linker, attachment site not given here)
2 | less stable complex formation |  |  |  | AMAS: RTD913 sub-class dimer with short straight-chain AMAS linker (Ac-W[βAla]KRAHHNALER[2‑amino‑2‑methylhept‑6‑enoic acid]RRD[S5]IKDSK; staple 13-17; not fully specified (residue 22); also: dimer via AMAS linker, attachment site not given here)
3 | less stable complex formation |  |  |  | EMCS: RTD913 sub-class dimer with long straight-chain EMCS linker (Ac-W[βAla]KRAHHNALER[2‑amino‑2‑methylhept‑6‑enoic acid]RRD[S5]IKDSK; staple 13-17; not fully specified (residue 22); also: dimer via EMCS linker, attachment site not given here)
4 | specifically binds |  |  | ~10 nM | Myc/Max: full length recombinant Myc/Max protein heterodimer
